Experiments:
[1] = target: Casein kinase I isoform gamma-2 (Homo sapiens) (UniProt P78368)
[2] = target: Serine/threonine-protein kinase BRSK2 (Homo sapiens) (UniProt Q8IWQ3); assay: BRSK2 Invitrogen Lab (UK) kinase screen (BI); conditions: Compound concentration 1.0 uM
[3] = target: Serine/threonine-protein kinase ULK3 (Homo sapiens) (UniProt Q6PHR2); conditions: Compound concentration 1.0 uM
[4] = target: MAP kinase-interacting serine/threonine-protein kinase 1 (Homo sapiens) (UniProt Q9BUB5); assay: MNK1 DUNDEE kinase screen (BI); conditions: Compound concentration 10.0 uM
[5] = target: Mitogen-activated protein kinase kinase kinase 9 (Homo sapiens) (UniProt P80192); conditions: Compound concentration 1.0 uM
[6] = target: Serine/threonine-protein kinase D1 (Homo sapiens) (UniProt Q15139); assay: PKD1 DUNDEE kinase screen (BI); conditions: Compound concentration 10.0 uM
[7] = target: Adrenergic receptor beta (Rattus norvegicus) (UniProt P18090+P10608+P26255)
[8] = target: Endothelin-1 receptor (Homo sapiens) (UniProt P25101); conditions: Compound concentration 100.0 uM
[9] = target: Tyrosine-protein kinase Lyn (Homo sapiens) (UniProt P07948); assay: LYN B Invitrogen Lab (UK) kinase screen (BI); conditions: Compound concentration 1.0 uM
[10] = target: Cyclin-dependent kinase-like 5 (Homo sapiens) (UniProt O76039); assay: CDKL5 Invitrogen Lab (UK) kinase screen (BI); conditions: Compound concentration 1.0 uM
[11] = target: Serine/threonine-protein kinase mTOR (Homo sapiens) (UniProt P42345)
[12] = target: Serine/threonine-protein kinase Nek2 (Homo sapiens) (UniProt P51955); assay: NEK2A DUNDEE kinase screen (BI); conditions: Compound concentration 10.0 uM
[13] = target: Inactive tyrosine-protein kinase PEAK1 (Homo sapiens) (UniProt Q9H792); conditions: Compound concentration 1.0 uM
[14] = target: Serine/threonine-protein kinase WNK2 (Homo sapiens) (UniProt Q9Y3S1); assay: WNK2 Invitrogen Lab (UK) kinase screen (BI); conditions: Compound concentration 1.0 uM
[15] = target: Dual specificity tyrosine-phosphorylation-regulated kinase 1B (Homo sapiens) (UniProt Q9Y463)
Chain of Dual specificity tyrosine-phosphorylation-regulated kinase 1B (Homo sapiens) (Q9Y463 whole entry, looked up): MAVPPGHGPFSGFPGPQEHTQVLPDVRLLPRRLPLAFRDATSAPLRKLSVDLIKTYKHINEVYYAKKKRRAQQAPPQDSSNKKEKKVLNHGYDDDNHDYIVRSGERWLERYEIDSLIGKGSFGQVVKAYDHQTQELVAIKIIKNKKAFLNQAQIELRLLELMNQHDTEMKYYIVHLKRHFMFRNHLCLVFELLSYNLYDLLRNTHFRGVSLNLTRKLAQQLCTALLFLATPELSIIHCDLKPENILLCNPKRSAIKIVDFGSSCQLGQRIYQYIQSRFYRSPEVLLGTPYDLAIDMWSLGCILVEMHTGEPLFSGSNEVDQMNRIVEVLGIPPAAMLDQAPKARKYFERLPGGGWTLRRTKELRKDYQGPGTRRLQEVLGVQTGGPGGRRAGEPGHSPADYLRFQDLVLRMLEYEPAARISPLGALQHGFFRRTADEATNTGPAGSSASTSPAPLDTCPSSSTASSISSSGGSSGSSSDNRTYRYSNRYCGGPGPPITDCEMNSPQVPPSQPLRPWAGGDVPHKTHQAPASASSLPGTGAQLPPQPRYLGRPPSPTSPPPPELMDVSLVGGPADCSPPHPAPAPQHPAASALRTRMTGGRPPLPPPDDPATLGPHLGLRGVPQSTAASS

[16] = target: Rho-associated protein kinase 2 (Homo sapiens) (UniProt O75116); conditions: Compound concentration 1.0 uM
[17] = target: Serine/threonine-protein kinase 25 (Homo sapiens) (UniProt O00506); conditions: Compound concentration 1.0 uM
[18] = target: Serine/threonine-protein kinase PAK 2 (Homo sapiens) (UniProt Q13177); conditions: Compound concentration 1.0 uM
[19] = target: Cyclin-dependent kinase 19 (Homo sapiens) (UniProt Q9BWU1); conditions: Compound concentration 1.0 uM
[20] = target: Protein kinase C alpha type (Homo sapiens) (UniProt P17252); assay: PKCA DUNDEE kinase screen (BI); conditions: Compound concentration 10.0 uM
[21] = target: Death-associated protein kinase 3 (Homo sapiens) (UniProt O43293); conditions: Compound concentration 1.0 uM
[22] = target: Serine/threonine-protein kinase/endoribonuclease IRE1 (Homo sapiens) (UniProt O75460); conditions: Compound concentration 1.0 uM
[23] = target: Serine/threonine-protein kinase 17B (Homo sapiens) (UniProt O94768); conditions: Compound concentration 1.0 uM
[24] = target: Protein kinase C gamma type (Homo sapiens) (UniProt P05129); assay: PRKCG Invitrogen Lab (UK) kinase screen (BI); conditions: Compound concentration 1.0 uM
[25] = target: Serine/threonine-protein kinase 4 (Homo sapiens) (UniProt Q13043); assay: STK4 Invitrogen Lab (UK) kinase screen (BI); conditions: Compound concentration 1.0 uM
[26] = target: Activin receptor type-1B (Homo sapiens) (UniProt P36896)
Chain of Activin receptor type-1B (Homo sapiens) (P36896 whole entry): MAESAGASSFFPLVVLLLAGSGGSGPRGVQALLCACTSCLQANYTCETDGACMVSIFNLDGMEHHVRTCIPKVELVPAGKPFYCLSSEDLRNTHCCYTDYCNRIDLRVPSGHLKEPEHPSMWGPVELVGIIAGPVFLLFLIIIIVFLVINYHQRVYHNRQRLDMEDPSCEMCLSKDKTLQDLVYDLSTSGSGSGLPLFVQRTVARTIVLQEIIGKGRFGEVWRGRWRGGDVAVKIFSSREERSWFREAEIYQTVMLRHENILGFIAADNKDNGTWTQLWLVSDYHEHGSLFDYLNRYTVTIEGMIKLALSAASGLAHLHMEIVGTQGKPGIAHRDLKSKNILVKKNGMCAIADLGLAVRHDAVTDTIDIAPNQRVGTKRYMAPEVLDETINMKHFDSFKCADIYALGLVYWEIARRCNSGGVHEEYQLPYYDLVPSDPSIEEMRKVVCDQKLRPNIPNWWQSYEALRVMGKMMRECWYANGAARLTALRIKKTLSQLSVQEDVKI

[27] = target: Muscarinic acetylcholine receptor (Rattus norvegicus) (UniProt P08482+P08483+P08485+P08911+P10980); conditions: Compound concentration 10.0 uM
[28] = target: CDK6/cyclin D1 (Homo sapiens) (UniProt P24385+Q00534); conditions: Compound concentration 1.0 uM
[29] = target: Ribosomal protein S6 kinase alpha-3 (Homo sapiens) (UniProt P51812)
Chain of Ribosomal protein S6 kinase alpha-3 (Homo sapiens) (P51812 whole entry): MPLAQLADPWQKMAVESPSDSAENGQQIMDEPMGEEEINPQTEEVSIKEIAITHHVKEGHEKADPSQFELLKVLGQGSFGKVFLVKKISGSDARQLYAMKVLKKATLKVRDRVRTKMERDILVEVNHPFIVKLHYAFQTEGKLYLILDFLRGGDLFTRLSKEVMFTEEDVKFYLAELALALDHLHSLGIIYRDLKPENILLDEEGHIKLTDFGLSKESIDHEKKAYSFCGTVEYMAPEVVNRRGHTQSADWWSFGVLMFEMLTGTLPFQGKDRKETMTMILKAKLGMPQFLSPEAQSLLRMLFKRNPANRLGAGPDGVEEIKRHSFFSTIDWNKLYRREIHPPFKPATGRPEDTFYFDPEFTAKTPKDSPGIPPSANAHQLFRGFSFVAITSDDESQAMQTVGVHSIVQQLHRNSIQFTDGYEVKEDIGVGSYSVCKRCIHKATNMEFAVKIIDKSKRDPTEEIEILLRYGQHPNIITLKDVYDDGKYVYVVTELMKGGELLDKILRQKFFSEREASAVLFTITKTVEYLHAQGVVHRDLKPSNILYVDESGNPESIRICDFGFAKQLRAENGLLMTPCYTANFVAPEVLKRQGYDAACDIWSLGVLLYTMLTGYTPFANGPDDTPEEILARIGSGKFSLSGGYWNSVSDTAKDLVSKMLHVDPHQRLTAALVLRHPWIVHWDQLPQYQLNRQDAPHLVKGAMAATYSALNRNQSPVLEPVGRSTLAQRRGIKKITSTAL

[30] = GPCRScan assay: inhibition of GABA/PBR; parameters: species or system Rattus norvegicus; radioligand conc. used [nm] 0.3 – 2.0, parental cells brain tissue
[31] = target: Urotensin-2 receptor (Homo sapiens) (UniProt Q9UKP6); assay: UROTENSIN_II Eurofins SafetyScreen44 (BI); conditions: Compound concentration 10.0 uM
[32] = target: Serine/threonine-protein kinase Nek6 (Homo sapiens) (UniProt Q9HC98); conditions: Compound concentration 1.0 uM
[33] = target: Receptor-type tyrosine-protein kinase FLT3 (Homo sapiens) (UniProt P36888)
Chain of Receptor-type tyrosine-protein kinase FLT3 (Homo sapiens) (P36888 whole entry): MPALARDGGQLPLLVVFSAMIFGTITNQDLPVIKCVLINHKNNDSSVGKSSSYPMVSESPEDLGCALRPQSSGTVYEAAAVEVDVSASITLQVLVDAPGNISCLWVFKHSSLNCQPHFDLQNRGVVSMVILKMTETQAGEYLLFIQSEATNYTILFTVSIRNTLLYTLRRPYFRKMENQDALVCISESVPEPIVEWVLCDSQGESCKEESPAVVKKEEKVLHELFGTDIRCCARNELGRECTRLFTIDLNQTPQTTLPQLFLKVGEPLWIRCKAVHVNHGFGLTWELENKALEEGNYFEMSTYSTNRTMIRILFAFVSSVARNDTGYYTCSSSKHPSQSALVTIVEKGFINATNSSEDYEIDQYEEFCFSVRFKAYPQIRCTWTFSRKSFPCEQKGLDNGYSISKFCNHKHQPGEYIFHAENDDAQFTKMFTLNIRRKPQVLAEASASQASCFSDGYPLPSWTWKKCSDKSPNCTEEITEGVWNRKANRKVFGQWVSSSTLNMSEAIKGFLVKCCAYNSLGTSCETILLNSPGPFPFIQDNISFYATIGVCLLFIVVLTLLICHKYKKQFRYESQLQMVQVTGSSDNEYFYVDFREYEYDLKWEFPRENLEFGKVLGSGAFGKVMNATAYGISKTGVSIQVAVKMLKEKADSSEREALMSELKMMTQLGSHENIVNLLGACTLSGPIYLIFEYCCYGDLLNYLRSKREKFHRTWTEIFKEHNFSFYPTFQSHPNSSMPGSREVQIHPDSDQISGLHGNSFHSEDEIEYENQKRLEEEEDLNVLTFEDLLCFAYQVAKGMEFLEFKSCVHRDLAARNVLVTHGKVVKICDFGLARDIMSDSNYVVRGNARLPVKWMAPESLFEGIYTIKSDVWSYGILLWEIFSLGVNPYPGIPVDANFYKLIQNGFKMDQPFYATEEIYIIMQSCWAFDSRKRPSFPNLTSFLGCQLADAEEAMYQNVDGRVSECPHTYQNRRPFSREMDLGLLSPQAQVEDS

[34] = target: MAP kinase-interacting serine/threonine-protein kinase 2 (Homo sapiens) (UniProt Q9HBH9); assay: MKNK2 (MNK2) Invitrogen Lab (UK) kinase screen (BI); conditions: Compound concentration 1.0 uM
[35] = target: Collagenase 3 (Homo sapiens) (UniProt P45452); conditions: Compound concentration 10.0 uM
[36] = target: Muscarinic acetylcholine receptor M1 (Homo sapiens) (UniProt P11229); conditions: Compound concentration 10.0 uM
Chain of Muscarinic acetylcholine receptor M1 (Homo sapiens) (P11229 whole entry): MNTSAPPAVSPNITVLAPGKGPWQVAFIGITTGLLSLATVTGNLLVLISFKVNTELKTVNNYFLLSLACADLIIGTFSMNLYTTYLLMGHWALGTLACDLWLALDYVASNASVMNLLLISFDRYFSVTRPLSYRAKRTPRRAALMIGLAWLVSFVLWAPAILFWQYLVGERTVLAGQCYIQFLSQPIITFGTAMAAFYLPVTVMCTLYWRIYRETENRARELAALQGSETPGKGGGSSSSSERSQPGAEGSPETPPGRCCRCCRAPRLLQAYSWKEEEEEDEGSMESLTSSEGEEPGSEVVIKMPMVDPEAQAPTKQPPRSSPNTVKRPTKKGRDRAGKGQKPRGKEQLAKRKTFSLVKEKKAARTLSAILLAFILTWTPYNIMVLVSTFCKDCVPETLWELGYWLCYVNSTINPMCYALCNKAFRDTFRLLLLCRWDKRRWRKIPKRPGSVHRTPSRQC

[37] = target: TGF-beta receptor type-1 (Homo sapiens) (UniProt P36897); conditions: Compound concentration 1.0 uM
[38] = target: Serotonin 1 (5-HT1) receptor (Rattus norvegicus) (UniProt P28564+P30940+P19327+P28565); assay: 5HT1/R Eurofins SafetyScreen44 (BI); type: protein assay
[39] = target: Dual specificity mitogen-activated protein kinase kinase 1 (Homo sapiens) (UniProt Q02750); assay: MAP2K1 Invitrogen Lab (UK) kinase screen (BI)
Chain of Dual specificity mitogen-activated protein kinase kinase 1 (Homo sapiens) (Q02750 whole entry): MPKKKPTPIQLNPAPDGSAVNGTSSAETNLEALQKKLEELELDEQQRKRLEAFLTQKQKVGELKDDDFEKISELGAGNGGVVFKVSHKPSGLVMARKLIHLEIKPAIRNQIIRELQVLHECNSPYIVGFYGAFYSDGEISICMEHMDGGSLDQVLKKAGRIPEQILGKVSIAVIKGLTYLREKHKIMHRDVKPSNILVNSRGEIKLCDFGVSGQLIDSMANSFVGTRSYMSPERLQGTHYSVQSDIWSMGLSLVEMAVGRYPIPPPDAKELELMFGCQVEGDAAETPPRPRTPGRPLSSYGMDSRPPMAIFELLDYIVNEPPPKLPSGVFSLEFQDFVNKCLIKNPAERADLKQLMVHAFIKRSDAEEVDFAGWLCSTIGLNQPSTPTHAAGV

[40] = target: Mitogen-activated protein kinase 9 (Homo sapiens) (UniProt P45984); conditions: Compound concentration 1.0 uM
[41] = target: Alpha-2B adrenergic receptor (Homo sapiens) (UniProt P18089); conditions: Compound concentration 10.0 uM
[42] = target: Beta-adrenergic receptor kinase 1 (Homo sapiens) (UniProt P25098); conditions: Compound concentration 1.0 uM
[43] = Compound concentration 100.0 uM

Chain of Casein kinase I isoform gamma-2 (Homo sapiens) (P78368 whole entry, looked up, canonical isoform): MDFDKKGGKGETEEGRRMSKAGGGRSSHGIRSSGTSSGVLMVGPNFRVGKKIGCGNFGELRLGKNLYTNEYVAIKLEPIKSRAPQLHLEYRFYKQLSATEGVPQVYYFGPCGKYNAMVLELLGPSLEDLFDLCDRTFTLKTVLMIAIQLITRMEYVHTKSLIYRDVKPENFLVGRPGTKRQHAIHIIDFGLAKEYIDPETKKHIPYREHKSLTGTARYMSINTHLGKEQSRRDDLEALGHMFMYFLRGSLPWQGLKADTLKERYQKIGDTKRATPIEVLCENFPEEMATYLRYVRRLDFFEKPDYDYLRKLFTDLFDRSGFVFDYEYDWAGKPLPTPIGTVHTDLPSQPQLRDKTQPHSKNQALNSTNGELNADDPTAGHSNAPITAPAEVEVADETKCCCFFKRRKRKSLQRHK

CCC(F)(F)c1cc(N2CCC(S(C)(=O)=O)CC2)nc2sc(C(N)=O)c(N)c12 [BI-605906]
residual activity ([1]; Compound concentration 1.0 uM): 96%
residual activity ([1]; Compound concentration 10.0 uM): 94%
residual activity [2]: 102%
residual activity [3]: 95%
residual activity [4]: 93.8%
residual activity [5]: 108%
residual activity [6]: 93.5%
residual activity ([7]; Compound concentration 10.0 uM): 86%
residual activity [7, 43]: 94%
residual activity [8]: 101%
residual activity [9]: 78%
residual activity [10]: 103%
residual activity ([11]; Compound concentration 1.0 uM): 99%
residual activity ([11]; Compound concentration 10.0 uM): 98%
residual activity [12]: 74.8%
residual activity [13]: 94%
residual activity [14]: 86%
residual activity ([15]; Compound concentration 1.0 uM): 95%
residual activity ([15]; Compound concentration 10.0 uM): 91%
residual activity [16]: 96%
residual activity [17]: 100%
residual activity [18]: 95%
residual activity [19]: 87%
residual activity [20]: 66.9%
residual activity [21]: 101%
residual activity [22]: 82%
residual activity [23]: 97%
residual activity [24]: 102%
residual activity [25]: 102%
residual activity ([26]; Compound concentration 1.0 uM): 96%
residual activity ([26]; Compound concentration 10.0 uM): 105%
residual activity [27]: 99%
residual activity [28]: 100%
residual activity ([29]; Compound concentration 1.0 uM): 94%
residual activity ([29]; Compound concentration 10.0 uM): 95%
Ki [30]: 2.62 µM
pKi [30]: 5.59
residual activity [31]: 107%
residual activity [32]: 95%
residual activity ([33]; Compound concentration 1.0 uM): 71%
residual activity ([33]; Compound concentration 10.0 uM): 38%
residual activity [34]: 68%
residual activity [35]: 90%
inhibition [36]: 8.33%
residual activity [37]: 94%
residual activity ([38]; Compound concentration 10.0 uM): 119%
residual activity [38, 43]: 107%
residual activity ([39]; Compound concentration 1.0 uM): 76%
residual activity ([39]; Compound concentration 10.0 uM): 80%
residual activity [40]: 98%
inhibition [41]: 9.66%
residual activity [42]: 95%
